From PubChem BioAssay AID1918995 (Molecular Pharmacology Branch, DTP, NCI, 2023)

Tested on: 324938-238-R-J1-PDC complex spheroid growth, % test/control
Test: Anticancer human tumor 324938-238-R-J1-PDC patient-derived bladder carcinoma cell line growth inhibition [AhR]
Details: for IC50: curve of first compound; for viability, T/C: stronger effect = lower value
Source text: Multicellular complex tumor spheroid response to aryl hydrocarbon receptor antagonists in combination with a variety of drugs and investigational agents in selected tumor cell lines
The current study was undertaken to assess response to aryl hydrocarbon receptor antagonists in combination with standard-of-care drugs and investigational agents in solid tumor complex spheroid models. Complex spheroids include a stromal component modeled by human endothelial cells (HUVEC) and fibroblasts modeled by human mesenchymal stem cells (MSCs). The concentration ranges selected for each drug and investigational agent were based upon clinically achievable concentrations if the clinical Cmax of the agent was known.
Compounds. The drugs and investigational agents: BAY 2416964 (NSC825713), GNF351 (NSC835774), CH-223191 (NSC835775), CPI-455 (NSC825282), aza-TdCyd (NSC777586), decitabine (NSC127716), belinostat (NSC758774), entinostat (NSC756642), pevonedistat (NSC761192), tazemetostat (NSC777109), talazoparib (NSC765396), olaparib (NSC753686), selinexor (NSC780203), nedisertib (M3814, NSC802822), bortezomib (NSC756655), venetoclax (NSC766270), doxorubicin (NSC123127), elimusertib (BAY189344, NSC800525), ceralasertib (AZD6738, NSC777638), TAK-243 (NSC785004), alisertib (NSC759677), etoposide (NSC141540), topotecan (NSC609699), eribulin (NSC707389), gemcitabine (NSC613327), carboplatin (NSC241240), cisplatin (NSC119875), and SN-38 (NSC673596) were obtained from the National Cancer Institute (NCI) Developmental Therapeutics Program Chemical Repository (32). The FDA-approved anticancer drug set is available from the Developmental Therapeutics Program at https://dtp.cancer.gov/organization/dscb/obtaining/available plates.htm. […] The stock solutions were prepared in dimethyl sulfoxide (DMSO, Sigma-Aldrich, St. Louis, MO, cat. D2650), except for the platinum compounds which were prepared in saline (Quality Biological, Gaithersburg, MD, cat. 114-055-101), at 800-fold the tested concentration and stored at -70 degrees C prior to their use. All drugs and investigational agents were tested over a range starting from a high concentration at or near the clinical Cmax and decreasing in half-log increments. If the clinical Cmax for an agent had not been determined, the highest concentration tested was 10 microM (Table 1).
Cell Culture. All cells were maintained in an incubator at 37 degrees C and 5% CO2 with 95% humidity. The PDC lines were cultured according to standard operating procedures established by the NCI PDMR (https://pdmr.cancer.gov). Briefly, all PDCs were thawed and cultured in Matrigel-coated flasks prepared with a working solution of 1X Ham's F-12 nutrient mix, without supplementation (Invitrogen, Waltham, MA, cat. 11765054), 100 U/mL penicillin-streptomycin (Invitrogen, cat. 15140122), and 2.5% Matrigel (Corning Inc., Corning, NY, cat. 354248) for the first three passages. All PDCs were cultured in complete DMEM/F-12 media containing advanced DMEM/F-12 (Invitrogen, cat. 12634028), 4.9% defined fetal bovine serum, heat inactivated (HyClone Laboratories Inc., Logan, UT, cat. SH30070.03HI), 389 ng/mL hydrocortisone (Sigma-Aldrich, cat. H4001), 9.7 ng/mL human EGF recombinant protein (Invitrogen, cat. PHG0313), 23.4 microg/mL adenine (Sigma-Aldrich, cat. A2786), 97.3 U/mL penicillin-streptomycin (Invitrogen, cat. 15140122), 1.9 mM L-glutamine (Invitrogen, cat. 25030081), and 9.7 microM Y-27632 dihydrochloride (Tocris Bioscience, Bristol, United Kingdom, cat. 1254). The PDCs were cultured in complete DMEM/F12 media without 10 microM Y-27632 dihydrochloride for at least two passages prior to the screen. The established cell lines NCI-H1341 and […] were cultured in DMEM/F-12, HEPES (Invitrogen, cat. 11330032), 5% defined fetal bovine serum (HyClone Laboratories Inc., cat. SH30070.03), ITS premix universal culture supplement [insulin (5 microg/mL), transferrin (5 microg/mL), and selenious acid (5 ng/mL)] […]

[1] = second compound 0.1 µM, first compound 0.0316 µM
[2] = second compound 0.1 µM, first compound 0.1 µM
[3] = second compound 0.316 µM, first compound 0.0316 µM
[4] = second compound 0.316 µM, first compound 0.1 µM
[5] = second compound 1 µM, first compound 0.0316 µM
[6] = second compound 1 µM, first compound 0.1 µM
[7] = second compound 3.16 µM, first compound 0.0316 µM
[8] = second compound 3.16 µM, first compound 0.1 µM
[9] = second compound 10 µM, first compound 0.0316 µM
[10] = second compound 10 µM, first compound 0.1 µM
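Also: spheroids exposed to agents for seven days before viability read.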

## CC[C@@]1(O)C(=O)OCc2c1cc1n(c2=O)Cc2cc3c(CN(C)C)c(O)ccc3nc2-1 + CC(CO)NC(=O)c1cc(-c2ccc(Cl)cc2)nn(-c2cnn(C)c2)c1=O
Second compound 0.1 µM
  IC50: 27.7 nM
Second compound 0.316 µM
  IC50: 20.4 nM
Second compound 1 µM
  IC50: 21.9 nM
Second compound 3.16 µM
  IC50: 14.2 nM
Second compound 10 µM
  IC50: 16.8 nM
Second compound 0.1 µM, first compound 0.000316 µM
  viability, T/C: 106%
Second compound 0.1 µM, first compound 0.001 µM
  viability, T/C: 103%
Second compound 0.1 µM, first compound 0.00316 µM
  viability, T/C: 89.7%
Second compound 0.1 µM, first compound 0.01 µM
  viability, T/C: 80.2%
[1]
  viability, T/C: 44.6%
[2]
  viability, T/C: 16.7%
Second compound 0.316 µM, first compound 0.000316 µM
  viability, T/C: 102%
Second compound 0.316 µM, first compound 0.001 µM
  viability, T/C: 106%
Second compound 0.316 µM, first compound 0.00316 µM
  viability, T/C: 100%
Second compound 0.316 µM, first compound 0.01 µM
  viability, T/C: 72.6%
[3]
  viability, T/C: 36.5%
[4]
  viability, T/C: 18.1%
Second compound 1 µM, first compound 0.000316 µM
  viability, T/C: 87.4%
Second compound 1 µM, first compound 0.001 µM
  viability, T/C: 97.9%
Second compound 1 µM, first compound 0.00316 µM
  viability, T/C: 89.6%
Second compound 1 µM, first compound 0.01 µM
  viability, T/C: 73%
[5]
  viability, T/C: 39.4%
[6]
  viability, T/C: 17.6%
Second compound 3.16 µM, first compound 0.000316 µM
  viability, T/C: 74%
Second compound 3.16 µM, first compound 0.001 µM
  viability, T/C: 85.4%
Second compound 3.16 µM, first compound 0.00316 µM
  viability, T/C: 76.3%
Second compound 3.16 µM, first compound 0.01 µM
  viability, T/C: 57.2%
[7]
  viability, T/C: 32.4%
[8]
  viability, T/C: 21%
Second compound 10 µM, first compound 0.000316 µM
  viability, T/C: 69.4%
Second compound 10 µM, first compound 0.001 µM
  viability, T/C: 69.7%
Second compound 10 µM, first compound 0.00316 µM
  viability, T/C: 61.4%
Second compound 10 µM, first compound 0.01 µM
  viability, T/C: 59.6%
[9]
  viability, T/C: 40.4%
[10]
  viability, T/C: 22.6%

## Nc1ccn(C2OC(CO)C(O)C2(F)F)c(=O)n1 (stereo not given) + CC(CO)NC(=O)c1cc(-c2ccc(Cl)cc2)nn(-c2cnn(C)c2)c1=O
Second compound 0.1 µM
  IC50: < 31.6 nM
Second compound 0.316 µM
  IC50: < 31.6 nM
Second compound 1 µM
  IC50: < 31.6 nM
Second compound 3.16 µM
  IC50: < 31.6 nM
Second compound 10 µM
  IC50: 38.6 nM
[1]
  viability, T/C: 36.8%
[2]
  viability, T/C: 24.1%
Second compound 0.1 µM, first compound 0.316 µM
  viability, T/C: 18.3%
Second compound 0.1 µM, first compound 1 µM
  viability, T/C: 17.9%
Second compound 0.1 µM, first compound 3.16 µM
  viability, T/C: 15.3%
Second compound 0.1 µM, first compound 10 µM
  viability, T/C: 12.3%
[3]
  viability, T/C: 34.3%
[4]
  viability, T/C: 27.3%
Second compound 0.316 µM, first compound 0.316 µM
  viability, T/C: 21.7%
Second compound 0.316 µM, first compound 1 µM
  viability, T/C: 18.6%
Second compound 0.316 µM, first compound 3.16 µM
  viability, T/C: 16%
Second compound 0.316 µM, first compound 10 µM
  viability, T/C: 11.6%
[5]
  viability, T/C: 39%
[6]
  viability, T/C: 30.7%
Second compound 1 µM, first compound 0.316 µM
  viability, T/C: 20.2%
Second compound 1 µM, first compound 1 µM
  viability, T/C: 19.9%
Second compound 1 µM, first compound 3.16 µM
  viability, T/C: 17.6%
Second compound 1 µM, first compound 10 µM
  viability, T/C: 12.9%
[7]
  viability, T/C: 43.2%
[8]
  viability, T/C: 38.6%
Second compound 3.16 µM, first compound 0.316 µM
  viability, T/C: 19.3%
Second compound 3.16 µM, first compound 1 µM
  viability, T/C: 19.8%
Second compound 3.16 µM, first compound 3.16 µM
  viability, T/C: 18.9%
Second compound 3.16 µM, first compound 10 µM
  viability, T/C: 11.8%
[9]
  viability, T/C: 51.3%
[10]
  viability, T/C: 43.1%
Second compound 10 µM, first compound 0.316 µM
  viability, T/C: 24.9%
Second compound 10 µM, first compound 1 µM
  viability, T/C: 21.4%
Second compound 10 µM, first compound 3.16 µM
  viability, T/C: 19.1%
Second compound 10 µM, first compound 10 µM
  viability, T/C: 14.2%
